Experiments:
Assay in all cases: Test B pre-/postemergence plant response
Type in all cases: in vivo
[1] = system: Italian ryegrass (Lolium multiflorum); details: for Plant response rating, Ryegrass, Italian: Postemergence
Summary of the method: (§1)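 Seeds were sown in loam soil/sand blend and treated preemergence with compound in non-phytotoxic solvent mixture containing surfactant; postemergence sprays, same formulation, went onto plants 2 to 18 cm (1- to 4-leaf stage) in peat-based planting medium. Greenhouse 13 to 15 days, then visual rating versus untreated controls, 0 (no effect) to 100 (complete control).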

[2] = system: Surinam grass (Brachiaria decumbens); details: for Plant response rating, Surinam Grass: Postemergence
Summary of the method: as §1

[3] = system: blackgrass (Alopecurus myosuroides); details: for Plant response rating, Blackgrass: Postemergence
Summary of the method: as §1

[4] = system: corn (Zea mays); details: for Plant response rating, Corn: Postemergence
Summary of the method: as §1

[5] = system: downy bromegrass (Bromus tectorum); details: for Plant response rating, Bromegrass, Downy: Postemergence
Summary of the method: as §1

[6] = system: giant foxtail (Setaria faberii); details: for Plant response rating, Foxtail, Giant: Postemergence
Summary of the method: as §1

[7] = system: johnsongrass (Sorghum halepense); details: for Plant response rating, Johnsongrass: Postemergence
Summary of the method: as §1

[8] = system: kochia (Kochia scoparia); details: for Plant response rating, Kochia: Postemergence
Summary of the method: as §1

[9] = system: pigweed (Amaranthus retroflexus); details: for Plant response rating, Pigweed: Postemergence
Summary of the method: as §1

[10] = system: ragweed (common ragweed, Ambrosia elatior); details: for Plant response rating, Ragweed: Postemergence
Summary of the method: as §1

[11] = system: soybean (Glycine max); details: for Plant response rating, Soybean: Postemergence
Summary of the method: as §1

[12] = system: velvetleaf (Abutilon theophrasti); details: for Plant response rating, Velvetleaf: Postemergence
Summary of the method: as §1

[13] = system: woolly cupgrass (Eriochloa villosa); details: for Plant response rating, Cupgrass, Woolly: Postemergence
Summary of the method: as §1

[14] = 62 g ai/ha, postemergence, 0 is no effect, 100 is complete control, 13 to 15 days
[15] = 31 g ai/ha, 0 to 100 scale (0 no effect, 100 complete control)
[16] = 125 g ai/ha, scale 0 to 100 (0 no effect, 100 complete control)
[17] = 62 g ai/ha, scale 0 to 100 (0 no effect, 100 complete control)
[18] = 125 g ai/ha, scale 0 (no effect) to 100 (complete control), 13 to 15 days
[19] = 250 g ai/ha, scale 0 to 100 (0 no effect, 100 complete control), 13 to 15 days

O=C1CCCC(O)=C1C(=O)c1cnc(-c2ccccc2)n(C2CCCC2)c1=O [Compound 131]
Plant response rating, Ryegrass, Italian ([1]; 16 g ai/ha, 0 to 100 scale): 0
Ryegrass, Italian plant response rating (0 to 100 scale) [1, 14]: 0
Plant response rating, Ryegrass, Italian [1, 15]: 0
Plant response rating, Ryegrass, Italian [1, 16]: 0
Plant response rating, Surinam Grass ([2]; 16 g ai/ha, 0 to 100 scale): 15
Surinam Grass plant response rating (0 to 100 scale) [2, 14]: 60
Plant response rating, Surinam Grass [2, 15]: 20
Plant response rating, Surinam Grass [2, 16]: 65
Plant response rating, Blackgrass ([3]; 16 g ai/ha, 0 to 100 scale): 0
Blackgrass plant response rating (0 to 100 scale) [3, 14]: 0
Plant response rating, Blackgrass [3, 15]: 0
Plant response rating, Blackgrass [3, 16]: 0
Plant response rating, Corn ([4]; 16 g ai/ha, 0 to 100 scale): 0
Corn plant response rating (0 to 100 scale) [4, 14]: 10
Plant response rating, Corn [4, 15]: 0
Plant response rating, Corn [4, 16]: 20
Plant response rating, Bromegrass, Downy ([5]; 16 g ai/ha, 0 to 100 scale): 0
Bromegrass, Downy plant response rating (0 to 100 scale) [5, 14]: 0
Plant response rating, Bromegrass, Downy [5, 15]: 0
Plant response rating, Bromegrass, Downy [5, 16]: 0
Plant response rating, Foxtail, Giant ([6]; 16 g ai/ha, 0 to 100 scale): 65
Foxtail, Giant plant response rating (0 to 100 scale) [6, 14]: 75
Plant response rating, Foxtail, Giant [6, 15]: 75
Plant response rating, Foxtail, Giant [6, 16]: 80
Plant response rating, Johnsongrass ([7]; 16 g ai/ha, 0 to 100 scale): 0
Johnsongrass plant response rating (0 to 100 scale) [7, 14]: 25
Plant response rating, Johnsongrass [7, 15]: 5
Plant response rating, Johnsongrass [7, 16]: 50
Plant response rating, Kochia ([8]; 16 g ai/ha, 0 to 100 scale): 20
Kochia plant response rating (0 to 100 scale) [8, 14]: 60
Plant response rating, Kochia [8, 15]: 35
Plant response rating, Kochia [8, 16]: 75
Plant response rating, Pigweed ([9]; 16 g ai/ha, 0 to 100 scale): 60
Pigweed plant response rating (0 to 100 scale) [9, 14]: 95
Plant response rating, Pigweed [9, 15]: 90
Plant response rating, Pigweed [9, 16]: 100
Plant response rating, Ragweed ([10]; 16 g ai/ha, 0 to 100 scale): 65
Ragweed plant response rating (0 to 100 scale) [10, 14]: 85
Plant response rating, Ragweed [10, 15]: 80
Plant response rating, Ragweed [10, 16]: 95
Plant response rating, Soybean ([11]; 16 g ai/ha, 0 to 100 scale): 75
Soybean plant response rating (0 to 100 scale) [11, 14]: 95
Plant response rating, Soybean [11, 15]: 75
Plant response rating, Soybean [11, 16]: 98
Plant response rating, Velvetleaf ([12]; 16 g ai/ha, 0 to 100 scale): 70
Velvetleaf plant response rating (0 to 100 scale) [12, 14]: 85
Plant response rating, Velvetleaf [12, 15]: 80
Plant response rating, Velvetleaf [12, 16]: 98
Plant response rating, Cupgrass, Woolly ([13]; 16 g ai/ha, 0 to 100 scale): 10
Cupgrass, Woolly plant response rating (0 to 100 scale) [13, 14]: 60
Plant response rating, Cupgrass, Woolly [13, 15]: 50
Plant response rating, Cupgrass, Woolly [13, 16]: 65

COCCCn1c(-c2cccc(F)c2)ncc(C(=O)C2=C(O)C3CCC(C3)C2=O)c1=O (stereo not shown) [Compound 238]
Plant response rating, Ryegrass, Italian [1, 15]: 20
Plant response rating, Ryegrass, Italian [1, 17]: 25
Plant response rating, Ryegrass, Italian [1, 18]: 25
Plant response rating, Ryegrass, Italian [1, 19]: 70
Plant response rating, Surinam Grass [2, 15]: 95
Plant response rating, Surinam Grass [2, 17]: 100
Plant response rating, Surinam Grass [2, 18]: 100
Plant response rating, Surinam Grass [2, 19]: 100
Plant response rating, Blackgrass [3, 15]: 40
Plant response rating, Blackgrass [3, 17]: 60
Plant response rating, Blackgrass [3, 18]: 60
Plant response rating, Blackgrass [3, 19]: 70
Plant response rating, Corn [4, 15]: 80
Plant response rating, Corn [4, 17]: 80
Plant response rating, Corn [4, 18]: 95
Plant response rating, Corn [4, 19]: 95
Plant response rating, Bromegrass, Downy [5, 15]: 10
Plant response rating, Bromegrass, Downy [5, 17]: 40
Plant response rating, Bromegrass, Downy [5, 18]: 50
Plant response rating, Bromegrass, Downy [5, 19]: 85
Plant response rating, Foxtail, Giant [6, 15]: 100
Plant response rating, Foxtail, Giant [6, 17]: 100
Plant response rating, Foxtail, Giant [6, 18]: 100
Plant response rating, Foxtail, Giant [6, 19]: 100
Plant response rating, Johnsongrass [7, 15]: 60
Plant response rating, Johnsongrass [7, 18]: 98
Plant response rating, Johnsongrass [7, 19]: 100
Plant response rating, Kochia [8, 15]: 90
Plant response rating, Kochia [8, 17]: 98
Plant response rating, Kochia [8, 18]: 100
Plant response rating, Kochia [8, 19]: 100
Plant response rating, Pigweed [9, 15]: 100
Plant response rating, Pigweed [9, 17]: 100
Plant response rating, Pigweed [9, 18]: 100
Plant response rating, Pigweed [9, 19]: 100
Plant response rating, Ragweed [10, 15]: 100
Plant response rating, Ragweed [10, 17]: 100
Plant response rating, Ragweed [10, 18]: 100
Plant response rating, Ragweed [10, 19]: 100
Plant response rating, Soybean [11, 15]: 98
Plant response rating, Soybean [11, 17]: 100
Plant response rating, Soybean [11, 18]: 100
Plant response rating, Soybean [11, 19]: 100
Plant response rating, Velvetleaf [12, 15]: 80
Plant response rating, Velvetleaf [12, 17]: 90
Plant response rating, Velvetleaf [12, 18]: 100
Plant response rating, Velvetleaf [12, 19]: 100
Plant response rating, Cupgrass, Woolly [13, 15]: 95
Plant response rating, Cupgrass, Woolly [13, 17]: 100
Plant response rating, Cupgrass, Woolly [13, 18]: 100
Plant response rating, Cupgrass, Woolly [13, 19]: 100

From patent US8952024B2, “Herbicidal pyrimidone derivatives” (E I du Pont de Nemours and Company, priority 2009, dated 2015)
